Columns and labels:
[1] = molecular target: Prostaglandin G/H synthase 1 (Homo sapiens) (UniProt P23219); test: Inhibitor of COX-1 in the Eurofins Cerep SafetyScreen44 (BI) by Fluorimetry (Cerep_4173); conditions: Compound concentration 10.0 uM
[2] = molecular target: 5-hydroxytryptamine receptor 1A (Homo sapiens) (UniProt P08908); test: 5-HT1A Eurofins-Cerep binding assay; set-up: ligand concentration 0.5 nM; conditions: Compound concentration 10.0 uM
[3] = molecular target: 5-hydroxytryptamine receptor 2A (Homo sapiens) (UniProt P28223); test: Agonist activity in the Eurofins Cerep SafetyScreen44 (BI) against 5HT2AH_AGON by Scintillation counting (Cerep_471); conditions: Compound concentration 10.0 uM
[4] = molecular target: Alpha-2A adrenergic receptor (Homo sapiens) (UniProt P08913); test: Inhibitor of ALPHA2A/HU in the Eurofins Cerep SafetyScreen44 (BI) by Radioactive Assay (Cerep_13); conditions: Compound concentration 10.0 uM
[5] = molecular target: Beta-1 adrenergic receptor (Homo sapiens) (UniProt P08588); test: beta 1 Eurofins-Cerep binding assay; set-up: ligand concentration 0.3 nM; conditions: Compound concentration 10.0 uM
Beta-1 adrenergic receptor (Homo sapiens), sequence (P08588 whole entry, looked up): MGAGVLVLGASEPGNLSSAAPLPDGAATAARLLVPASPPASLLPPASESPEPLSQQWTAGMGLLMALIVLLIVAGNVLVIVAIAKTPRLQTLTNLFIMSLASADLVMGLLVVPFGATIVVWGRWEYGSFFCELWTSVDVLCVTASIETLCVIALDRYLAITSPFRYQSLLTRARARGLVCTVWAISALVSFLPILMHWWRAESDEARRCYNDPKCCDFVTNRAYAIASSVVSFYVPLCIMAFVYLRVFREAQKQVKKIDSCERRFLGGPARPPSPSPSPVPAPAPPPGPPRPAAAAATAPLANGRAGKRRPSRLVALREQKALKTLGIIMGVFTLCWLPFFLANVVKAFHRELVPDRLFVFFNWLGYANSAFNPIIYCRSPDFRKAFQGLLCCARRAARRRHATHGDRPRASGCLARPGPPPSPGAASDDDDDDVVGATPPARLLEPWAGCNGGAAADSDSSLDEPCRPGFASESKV

[6] = molecular target: D(1A) dopamine receptor (Homo sapiens) (UniProt P21728); test: D1 Eurofins-Cerep binding assay; set-up: ligand concentration 0.3 nM; conditions: Compound concentration 10.0 uM
[7] = molecular target: Endothelin-1 receptor (Homo sapiens) (UniProt P25101); test: ETA Eurofins-Cerep binding assay; set-up: ligand concentration 0.03 nM; conditions: Compound concentration 10.0 uM
Endothelin-1 receptor (Homo sapiens), sequence (P25101 whole entry): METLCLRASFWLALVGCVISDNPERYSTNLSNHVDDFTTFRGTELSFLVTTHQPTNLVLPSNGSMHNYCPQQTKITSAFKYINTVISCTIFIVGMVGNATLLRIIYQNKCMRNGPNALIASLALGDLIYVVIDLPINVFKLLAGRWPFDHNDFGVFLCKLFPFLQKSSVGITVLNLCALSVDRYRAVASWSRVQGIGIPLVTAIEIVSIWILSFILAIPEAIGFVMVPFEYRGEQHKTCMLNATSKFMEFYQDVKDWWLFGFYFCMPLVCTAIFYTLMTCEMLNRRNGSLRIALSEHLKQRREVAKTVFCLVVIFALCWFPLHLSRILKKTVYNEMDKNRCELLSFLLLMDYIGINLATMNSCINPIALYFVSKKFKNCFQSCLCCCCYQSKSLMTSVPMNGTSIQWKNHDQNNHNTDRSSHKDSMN

Rattus norvegicus [8] = species on record: Rattus norvegicus; test: KV channel Eurofins-Cerep binding assay; set-up: ligand concentration 0.01 nM; conditions: Compound concentration 10.0 uM
[9] = molecular target: Muscarinic acetylcholine receptor M2 (Homo sapiens) (UniProt P08172); test: M2 Eurofins-Cerep binding assay; set-up: ligand concentration 2 nM; conditions: Compound concentration 10.0 uM
[10] = molecular target: Mu-type opioid receptor (Homo sapiens) (UniProt P35372); test: mu (MOP) Eurofins-Cerep binding assay; set-up: ligand concentration 0.5 nM; conditions: Compound concentration 10.0 uM
[11] = molecular target: Vasopressin V1a receptor (Homo sapiens) (UniProt P37288); test: V1a Eurofins-Cerep binding assay; set-up: ligand concentration 0.3 nM; conditions: Compound concentration 10.0 uM
[12] = molecular target: T1, Neuropeptide Y receptor type 2 (Homo sapiens, UniProt P49146); test: Radioligand binding assay (NPY2R, BHK); type: cell-based, BHK-21
T1 sequence (P49146 whole entry): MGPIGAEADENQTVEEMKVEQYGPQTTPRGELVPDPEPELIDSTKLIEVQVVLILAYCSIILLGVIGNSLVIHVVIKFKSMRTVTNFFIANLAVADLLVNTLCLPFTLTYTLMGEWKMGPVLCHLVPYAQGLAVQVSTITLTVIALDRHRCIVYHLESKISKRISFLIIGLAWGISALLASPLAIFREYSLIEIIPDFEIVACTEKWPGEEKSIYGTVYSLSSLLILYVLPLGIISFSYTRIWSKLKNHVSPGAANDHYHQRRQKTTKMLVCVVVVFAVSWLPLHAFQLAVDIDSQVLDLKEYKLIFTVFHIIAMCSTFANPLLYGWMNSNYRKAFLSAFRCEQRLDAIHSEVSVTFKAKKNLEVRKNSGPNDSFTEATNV

[13] = molecular target: Polyunsaturated fatty acid lipoxygenase ALOX15 (Oryctolagus cuniculus) (UniProt P12530); test: Inhibitor of 15LO in the Eurofins Panlabs screen (BI) by absorption of electromagnetic radiation; conditions: Compound concentration 30.0 uM
[14] = molecular target: Serotonin 1 (5-HT1) receptor (Rattus norvegicus) (UniProt P28564+P30940+P19327+P28565); test: Activity against 5HT1/R in the Eurofins Panlabs screen (BI) by Radioactive Assay; type: protein assay; conditions: Compound concentration 10.0 uM
[15] = molecular target: Acetyl-coenzyme A synthetase, cytoplasmic (Homo sapiens) (UniProt Q9NR19); test: Inhibitor of ACOASYN in the Eurofins Panlabs screen (BI) by Radioactive Assay; conditions: Compound concentration 100.0 uM
Acetyl-coenzyme A synthetase, cytoplasmic (Homo sapiens), sequence (Q9NR19 whole entry): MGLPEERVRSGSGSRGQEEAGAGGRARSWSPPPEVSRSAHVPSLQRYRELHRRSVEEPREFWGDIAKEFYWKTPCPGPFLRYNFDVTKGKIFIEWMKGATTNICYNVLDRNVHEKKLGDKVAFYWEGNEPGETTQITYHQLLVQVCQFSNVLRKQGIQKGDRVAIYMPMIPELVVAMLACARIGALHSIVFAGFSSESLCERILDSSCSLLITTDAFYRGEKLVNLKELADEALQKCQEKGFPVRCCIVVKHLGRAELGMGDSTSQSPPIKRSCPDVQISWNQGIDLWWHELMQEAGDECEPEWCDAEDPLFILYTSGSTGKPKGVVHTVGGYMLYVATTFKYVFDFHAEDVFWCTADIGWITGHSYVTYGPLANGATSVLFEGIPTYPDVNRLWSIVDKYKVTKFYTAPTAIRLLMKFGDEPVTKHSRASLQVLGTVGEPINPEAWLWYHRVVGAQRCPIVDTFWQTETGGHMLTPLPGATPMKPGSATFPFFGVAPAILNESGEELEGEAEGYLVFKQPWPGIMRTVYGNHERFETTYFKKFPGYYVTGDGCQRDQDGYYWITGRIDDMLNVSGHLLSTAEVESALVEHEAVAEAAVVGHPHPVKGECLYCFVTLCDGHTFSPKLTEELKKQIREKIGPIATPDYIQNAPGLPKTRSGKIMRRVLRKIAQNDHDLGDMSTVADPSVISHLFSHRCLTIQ

[16] = molecular target: Alpha-1D adrenergic receptor (Rattus norvegicus) (UniProt P23944); test: Activity against ALPHA1/R in the Eurofins Panlabs screen (BI) by Others; conditions: Compound concentration 10.0 uM
Cavia porcellus = species on record: Cavia porcellus; test: Activity against ANF/GP in the Eurofins Panlabs screen (BI) by Radioactive Assay; conditions: Compound concentration 10.0 uM
Rattus norvegicus [17] = species on record: Rattus norvegicus; test: Activity against BETA/R in the Eurofins Panlabs screen (BI) by Radioactive Assay; conditions: Compound concentration 10.0 uM
[18] = molecular target: Beta-1 adrenergic receptor (Oryctolagus cuniculus) (UniProt A0A4Y6F0G0); test: Activity against BETA1/RB in the Eurofins Panlabs screen (BI) by Radioactive Assay; conditions: Compound concentration 10.0 uM
[19] = molecular target: L-type calcium channel (dihydropyridine site), Cav1.2 alpha-1C (Rattus norvegicus, UniProt P22002); test: Activity against CA+/DHPSI/RA in the Eurofins Panlabs screen (BI) by Radioactive Assay; conditions: compound concentration 10 uM, read-out: % Ctrl
L-type calcium channel (dihydropyridine site), Cav1.2 alpha-1C, sequence (P22002 whole entry): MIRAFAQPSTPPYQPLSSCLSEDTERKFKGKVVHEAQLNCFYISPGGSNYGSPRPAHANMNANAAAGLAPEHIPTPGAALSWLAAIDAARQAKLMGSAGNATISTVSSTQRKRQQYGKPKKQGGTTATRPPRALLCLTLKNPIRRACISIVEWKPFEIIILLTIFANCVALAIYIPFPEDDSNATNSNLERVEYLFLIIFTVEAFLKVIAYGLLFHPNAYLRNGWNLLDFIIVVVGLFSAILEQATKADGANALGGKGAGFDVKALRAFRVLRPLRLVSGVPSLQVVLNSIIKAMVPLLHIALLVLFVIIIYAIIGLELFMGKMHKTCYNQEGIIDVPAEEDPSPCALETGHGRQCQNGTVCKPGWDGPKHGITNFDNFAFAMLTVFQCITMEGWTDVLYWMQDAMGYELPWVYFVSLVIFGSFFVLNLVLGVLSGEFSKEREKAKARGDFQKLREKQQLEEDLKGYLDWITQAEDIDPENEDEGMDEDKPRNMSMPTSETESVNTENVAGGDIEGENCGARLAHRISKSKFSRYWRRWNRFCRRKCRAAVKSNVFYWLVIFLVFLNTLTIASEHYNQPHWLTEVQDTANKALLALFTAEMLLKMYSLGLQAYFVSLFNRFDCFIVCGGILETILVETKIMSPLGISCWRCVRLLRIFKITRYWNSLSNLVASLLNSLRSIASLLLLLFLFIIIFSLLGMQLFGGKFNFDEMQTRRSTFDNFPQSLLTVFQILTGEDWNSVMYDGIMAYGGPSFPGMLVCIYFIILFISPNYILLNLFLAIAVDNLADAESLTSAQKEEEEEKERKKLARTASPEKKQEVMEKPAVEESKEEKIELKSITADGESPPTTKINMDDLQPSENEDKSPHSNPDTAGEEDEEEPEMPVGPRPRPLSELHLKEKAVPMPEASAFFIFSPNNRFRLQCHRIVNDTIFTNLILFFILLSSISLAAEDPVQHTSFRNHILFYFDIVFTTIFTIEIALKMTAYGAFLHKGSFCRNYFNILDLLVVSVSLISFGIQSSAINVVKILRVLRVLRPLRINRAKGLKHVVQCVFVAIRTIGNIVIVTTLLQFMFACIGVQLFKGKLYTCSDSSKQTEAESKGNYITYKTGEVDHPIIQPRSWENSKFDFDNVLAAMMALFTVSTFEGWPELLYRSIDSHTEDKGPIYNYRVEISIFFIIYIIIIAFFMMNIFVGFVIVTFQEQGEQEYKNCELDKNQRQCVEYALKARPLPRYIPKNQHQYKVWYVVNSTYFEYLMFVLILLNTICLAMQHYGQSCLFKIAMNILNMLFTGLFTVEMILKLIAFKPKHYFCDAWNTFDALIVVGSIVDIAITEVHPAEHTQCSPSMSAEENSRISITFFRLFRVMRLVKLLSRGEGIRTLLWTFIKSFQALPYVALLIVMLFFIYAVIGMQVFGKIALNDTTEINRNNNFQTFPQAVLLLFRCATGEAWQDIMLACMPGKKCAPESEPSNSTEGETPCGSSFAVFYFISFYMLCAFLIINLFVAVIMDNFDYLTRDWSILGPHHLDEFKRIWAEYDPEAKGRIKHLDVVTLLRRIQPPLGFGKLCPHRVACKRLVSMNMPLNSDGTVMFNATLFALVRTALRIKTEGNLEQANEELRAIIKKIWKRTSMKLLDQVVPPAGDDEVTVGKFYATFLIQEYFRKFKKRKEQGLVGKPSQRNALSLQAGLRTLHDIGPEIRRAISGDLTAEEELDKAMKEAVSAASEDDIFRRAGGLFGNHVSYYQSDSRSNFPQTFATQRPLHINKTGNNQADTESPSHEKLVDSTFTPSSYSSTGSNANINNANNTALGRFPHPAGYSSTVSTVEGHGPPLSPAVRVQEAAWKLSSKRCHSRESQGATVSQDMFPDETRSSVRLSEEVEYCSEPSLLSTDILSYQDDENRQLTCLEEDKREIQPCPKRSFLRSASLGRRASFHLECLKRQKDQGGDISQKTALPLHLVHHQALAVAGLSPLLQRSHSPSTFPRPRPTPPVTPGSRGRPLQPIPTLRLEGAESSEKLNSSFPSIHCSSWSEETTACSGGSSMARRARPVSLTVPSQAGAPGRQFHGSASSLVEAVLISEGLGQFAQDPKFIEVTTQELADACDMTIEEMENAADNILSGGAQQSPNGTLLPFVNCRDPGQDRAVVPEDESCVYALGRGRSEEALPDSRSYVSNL

[20] = molecular target: Carbonic anhydrase 6 (Homo sapiens) (UniProt P23280); test: Inhibitor of CANHYDRASE in the Eurofins Panlabs screen (BI) by absorption of electromagnetic radiation; conditions: Compound concentration 10.0 uM
[21] = molecular target: Cholecystokinin receptor type A (Rattus norvegicus) (UniProt P30551); test: Activity against CCKA/R in the Eurofins Panlabs screen (BI) by Radioactive Assay; conditions: Compound concentration 10.0 uM
[22] = molecular target: Gastrin/cholecystokinin type B receptor (Mus musculus) (UniProt P56481); test: Activity against CCKB/M in the Eurofins Panlabs screen (BI); conditions: Compound concentration 10.0 uM
[23] = molecular target: Calcitonin-gene-related peptide receptor; CALCRL/RAMP1 (Rattus norvegicus) (UniProt Q63118+Q9JJ74); test: Activity against CGRP/R in the Eurofins Panlabs screen (BI) by Radioactive Assay; type: protein-complex assay; conditions: Compound concentration 10.0 uM
[24] = molecular target: D(1A) dopamine receptor (Rattus norvegicus) (UniProt P18901); test: Activity against D1/R in the Eurofins Panlabs screen (BI) by Radioactive Assay; conditions: Compound concentration 10.0 uM
D(1A) dopamine receptor (Rattus norvegicus), sequence (P18901 whole entry): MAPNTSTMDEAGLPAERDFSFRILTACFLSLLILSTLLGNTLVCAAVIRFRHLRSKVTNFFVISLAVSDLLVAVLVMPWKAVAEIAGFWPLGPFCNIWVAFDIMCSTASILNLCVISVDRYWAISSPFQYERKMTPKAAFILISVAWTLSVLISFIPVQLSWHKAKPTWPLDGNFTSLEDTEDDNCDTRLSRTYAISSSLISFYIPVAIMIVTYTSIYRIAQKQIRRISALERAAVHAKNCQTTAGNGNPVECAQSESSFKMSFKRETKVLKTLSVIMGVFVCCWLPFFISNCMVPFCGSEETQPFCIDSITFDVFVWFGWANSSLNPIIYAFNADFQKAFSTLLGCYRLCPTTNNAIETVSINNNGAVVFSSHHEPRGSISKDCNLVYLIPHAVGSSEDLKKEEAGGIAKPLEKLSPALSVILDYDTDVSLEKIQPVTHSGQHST

[25] = molecular target: D(2) dopamine receptor (Rattus norvegicus) (UniProt P61169); test: Activity against D2/RAC/R in the Eurofins Panlabs screen (BI); conditions: Compound concentration 10.0 uM
[26] = molecular target: Nitric oxide synthase, inducible (Mus musculus) (UniProt P29477); test: Activity against INOS in the Eurofins Panlabs screen (BI) by absorption of electromagnetic radiation; conditions: Compound concentration 10.0 uM
[27] = molecular target: Potassium voltage-gated channel subfamily A member 1 (Rattus norvegicus) (UniProt P10499); test: Activity against K+/KA/R in the Eurofins Panlabs screen (BI) by Radioactive Assay; conditions: Compound concentration 10.0 uM
[28] = molecular target: ATP-sensitive inward rectifier potassium channel 1 isoform X1 (Mesocricetus auratus) (UniProt A0A1U8CU73); test: Activity against K+/KATP/HA in the Eurofins Panlabs screen (BI) by Radioactive Assay; conditions: Compound concentration 10.0 uM
ATP-sensitive inward rectifier potassium channel 1 isoform X1 (Mesocricetus auratus), sequence (A0A1U8CU73 as listed by the source): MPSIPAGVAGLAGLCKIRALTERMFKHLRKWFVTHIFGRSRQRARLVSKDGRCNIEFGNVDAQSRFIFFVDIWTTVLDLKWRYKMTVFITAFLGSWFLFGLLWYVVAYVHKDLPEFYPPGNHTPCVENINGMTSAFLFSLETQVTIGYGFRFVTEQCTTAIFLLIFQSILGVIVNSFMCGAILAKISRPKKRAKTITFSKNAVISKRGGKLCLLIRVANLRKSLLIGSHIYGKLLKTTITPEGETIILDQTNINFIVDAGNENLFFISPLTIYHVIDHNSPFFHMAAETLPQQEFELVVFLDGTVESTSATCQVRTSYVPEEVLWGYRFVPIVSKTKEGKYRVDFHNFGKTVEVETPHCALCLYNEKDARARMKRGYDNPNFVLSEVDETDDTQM

[29] = molecular target: Cysteinyl leukotriene receptor 1 (Cavia porcellus) (UniProt Q2NNR5); test: Activity against LTD4/GP in the Eurofins Panlabs screen (BI) by Radioactive Assay; conditions: Compound concentration 10.0 uM
[30] = molecular target: Muscarinic acetylcholine receptor (Rattus norvegicus) (UniProt P08482+P08483+P08485+P08911+P10980); test: Activity against MUSCARIN/NS in the Eurofins Panlabs screen (BI) by Radioactive Assay; type: protein assay; conditions: Compound concentration 10.0 uM
[31] = molecular target: Platelet-activating factor receptor (Oryctolagus cuniculus) (UniProt G1TEI7); test: Activity against PAF/RB in the Eurofins Panlabs screen (BI) by Radioactive Assay; conditions: Compound concentration 10.0 uM
[32] = molecular target: Progesterone receptor (Bos taurus) (UniProt Q690N0); test: Activity against PROGEST/BO in the Eurofins Panlabs screen (BI) by Radioactive Assay; conditions: Compound concentration 10.0 uM
[33] = molecular target: Tumor necrosis factor (Homo sapiens) (UniProt P01375); test: Activity against TNFA/HU/HELA in the Eurofins Panlabs screen (BI) by Radioactive Assay; conditions: Compound concentration 10.0 uM
[34] = molecular target: Vasopressin V1a receptor (Rattus norvegicus) (UniProt P30560); test: Activity against V1/RA in the Eurofins Panlabs screen (BI) by Radioactive Assay; conditions: Compound concentration 10.0 uM

5-hydroxytryptamine receptor 1A (Homo sapiens), sequence (P08908 whole entry): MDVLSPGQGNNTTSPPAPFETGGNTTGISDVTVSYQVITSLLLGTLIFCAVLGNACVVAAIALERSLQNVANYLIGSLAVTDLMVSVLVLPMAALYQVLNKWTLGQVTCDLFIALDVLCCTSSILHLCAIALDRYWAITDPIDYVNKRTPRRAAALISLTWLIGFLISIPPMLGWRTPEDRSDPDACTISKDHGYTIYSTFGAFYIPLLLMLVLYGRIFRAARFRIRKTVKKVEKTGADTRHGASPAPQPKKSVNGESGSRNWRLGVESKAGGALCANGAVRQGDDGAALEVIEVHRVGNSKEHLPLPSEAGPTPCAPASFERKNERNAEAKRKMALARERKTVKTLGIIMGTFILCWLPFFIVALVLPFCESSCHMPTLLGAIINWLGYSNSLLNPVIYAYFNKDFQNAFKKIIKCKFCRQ

Compound `N=C(N)NCCC[C@@H](NC(=O)C(c1ccccc1)c1ccccc1)C(=O)NCc1ccc(CNC(N)=O)cc1` has a residual activity [1] of 81%, a residual activity [2] of 56% and a residual activity [3] of 60%. For the same compound, the residual activity [4] was 93%, the residual activity [5] was 106% and the residual activity [6] was 97%. It also gave a residual activity [7] of 112%, a residual activity (Rattus norvegicus [8]) of 100% and a residual activity [9] of 90%. The residual activity [10] was 71%, the residual activity [11] was 29% and the IC50 [12] was > 1000 nM (not active). The residual activity [13] was 118%, the residual activity [14] was 90% and the residual activity [15] was 100%. It also gave a residual activity [16] of 91%, a residual activity (Cavia porcellus) of 97% and a residual activity (Rattus norvegicus [17]) of 106%. For the same compound, the residual activity [18] was 82%, the activity at 10 µM [19] was 82% (not active) and the residual activity [20] was 96%. It also gave a residual activity [21] of 87%, a residual activity [22] of 117% and a residual activity [23] of 92%. The residual activity [24] was 103%, the residual activity [25] was 84% and the residual activity [26] was 99%. For the same compound, the residual activity [27] was 99%, the residual activity [28] was 76% and the residual activity [29] was 109%. For the same compound, the residual activity [30] was 87%, the residual activity [31] was 91% and the residual activity [32] was 114%. It also gave a residual activity [33] of 114% and a residual activity [34] of 98%.

From ChEMBL document CHEMBL5463723, “Data for DCP probe BIBO3304” (2023)
